In article PMC7582667, “A Series of Isatin-Hydrazones with Cytotoxic Activity and CDK2 Kinase Inhibitory Activity: A Potential Type II ATP Competitive Inhibitor” (Molecules, 2020):
Where “and” joins values, the source holds several entries; their conditions need not be identical. Equal entries are not always repeated.

Assays:
[1] = tested on: MCF7 (human breast adenocarcinoma) cell lines; assay: MTT cytotoxicity assay, MCF7; type: cell-based; settings: MCF7 cells, triplicates
Protocol: (§1) The cytotoxicity of the synthesized compounds was evaluated by MTT assay, as previously described. Two cancer cell lines, MCF7 (human breast adenocarcinoma) and A2780 (human ovary adenocarcinoma), were used in this study, which were obtained from the ATCC (Rockville, MD, USA). They were sub-cultured in RPMI-1640 media (supplemented with 10% FBS and 1% antibiotics) at 37 °C and 5% CO2. Additionally, compounds were prepared at the same medium to obtain serial dilutions (50, 25, 19,1 and 0.1 µM). The two cell lines were separately cultured in 96-well plates (3 × 10^3/well) and incubated at 37 °C overnight. The following day, before treating the cells with the compounds, each well of the T0 plate was treated with 50 μL MTT solution (2 mg/mL in phosphate buffered saline) and then incubated for 2–4 h. The media were aspirated, and the formazan crystals were solubilized by adding 150 µL DMSO. Absorbance was read on a multi-plate reader (BioRad) at […]. Optical density of the purple formazan A550 was proportional to the number of viable cells. […] The data were obtained from triplicates and analyzed using statistical software.

[2] = tested on: A2780 (human ovary adenocarcinoma) cell lines; assay: MTT cytotoxicity assay, A2780; type: cell-based; settings: A2780 cells; for IC50: Homo sapiens, A2780, MTT assay, triplicates; for inhibitory activity against A2780 cell lines (in words): MTT assay
Protocol: as §1

CDK2/CyclinA2 = target: T1, CDK2/CyclinA2 (Homo sapiens, UniProt P24941); assay: In vitro CDK2 inhibitory activity (CDK2 Assay Kit, Kinase-Glo MAX luminescence); type: biochemical; settings: triplicate measurements, read-out: CDK2 Protein Kinase (IC50 in µM)
T1 construct: purchased #79599
Protocol: The CDK2 Assay Kit is designed to measure CDK2/CyclinA2 activity for screening and profiling applications, using Kinase-Glo® MAX as a detection reagent. The CDK2 Assay Kit comes in a convenient 96-well format, with enough purified recombinant CDK2/CyclinA2 enzyme, CDK substrate peptide, ATP and kinase assay buffer for 100 enzyme reactions. […] The CDK2/CyclinA2 activity at a single dose concentration of 10μM was performed, where the Kinase-Glo MAX luminescence kinase assay kit (Promega#V6071) was used. The compounds were diluted in 10% DMSO and 5 μL of the dilution was added to a 50 μL reaction so that the final concentration of DMSO was 1% in all of the reactions. All of the enzymatic reactions were conducted at 30 °C for 40 min. The 50 μL reaction mixture contained 40 mM Tris, pH 7.4, 10 mM MgCl2, 0.1 mg/mL BSA, 1 mM DTT, […], Kinase substrate and the enzyme (CDK2/CyclinA2). After the enzymatic reaction, 50 μL of Kinase-Glo® MAX Luminescence kinase assay solution was added to each reaction and the plates were incubated for 5 min at room temperature. Luminescence signal was measured using a Bio Tek Synergy 2 microplate reader.

Compound	melting point	IC50 (CDK2/CyclinA2)	IC50 [1]	IC50 [2]	inhibitory activity against A2780 cell lines (in words) [2]
Cc1ccccc1C=NN=C1C(=O)Nc2ccccc21 [Compound 4a, 3-((2-Methylbenzylidene)hydrazono)indolin-2-one]	198 to 199 °C	–	10.82 ± 0.05 µM	> 50 µM	–
Cc1cccc(C=NN=C2C(=O)Nc3ccccc32)c1 [Compound 4b, 3-((3-Methylbenzylidene)hydrazono)indolin-2-one]	183 to 184 °C	–	14.7 µM	> 50 µM	–
Cc1ccc(C=NN=C2C(=O)Nc3ccccc32)cc1 [Compound 4c, 3-((4-Methylbenzylidene)hydrazono)indolin-2-one]	230 to 231 °C	–	32.5 ± 0.52 µM	> 50 µM	–
CSc1ccc(C=NN=C2C(=O)Nc3ccccc32)cc1 [Compound 4d, 3-((4-(Methylthio)benzylidene)hydrazono)indolin-2-one]	204 to 205 °C	–	24 ± 2.61 µM	> 50 µM	–
O=C1Nc2ccccc2C1=NN=Cc1ccccc1Br [Compound 4e, 3-((2-Bromobenzylidene)hydrazono)indolin-2-one]	233 to 234 °C	–	5.46 ± 0.71 µM	19 ± 2.52 µM	a little inhibitory activity
O=C1Nc2ccccc2C1=NN=Cc1cccc(Br)c1 [Compound 4f, 3-((3-Bromobenzylidene)hydrazono)indolin-2-one]	182 to 183 °C	–	9.07 ± 0.59 µM	25 ± 2.82 µM	a little inhibitory activity
O=C1Nc2ccccc2C1=NN=Cc1ccc(Br)cc1 [Compound 4g, 3-((4-Bromobenzylidene)hydrazono)indolin-2-one]	267 to 268 °C	–	15.7 ± 0.78 µM	> 50 µM	–
COc1cccc2c1C(=O)c1c(O)c3c(c(O)c1C2=O)C[C@@](O)(C(=O)CO)C[C@@H]3O[C@H]1C[C@H](N)[C@H](O)[C@H](C)O1 [Doxorubicin, reference compound]	–	–	3.1 ± 0.29 µM	0.2 ± 0.03 µM	–

Now from value to molecule, other results behind:

melting point	IC50 (CDK2/CyclinA2)	Compound	IC50 [1]	IC50 [2]	inhibitory activity against A2780 cell lines (in words) [2]
251 to 252 °C	–	COc1cc(C)c(C=NN=C2C(=O)Nc3ccccc32)c(C)c1 [Compound 4h, 3-((4-Methoxy-2,6-dimethylbenzylidene)hydrazono)indolin-2-one]	25.78 ± 0.13 µM	> 50 µM	–
242 to 243 °C	–	COc1ccc(C=NN=C2C(=O)Nc3ccccc32)c(O)c1 [Compound 4i, 3-((2-Hydroxy-4-methoxybenzylidene)hydrazono)indolin-2-one]	7.77 ± 0.008 µM	> 50 µM	–
286 to 287 °C	0.245 µM and 0.246 µM	O=C1Nc2ccccc2C1=NN=Cc1c(Cl)cccc1Cl [Compound 4j, 3-((2,6-Dichlorobenzylidene)hydrazono)indolin-2-one]	1.51 ± 0.09 µM	26 ± 2.24 µM	a little inhibitory activity
–	0.3 µM and 0.301 µM	O=C1Nc2ccccc2C1=NN=Cc1c(F)cccc1Cl [Compound 4k, 3-((2-Chloro-6-fluorobenzylidene)hydrazono)indolin-2-one]	3.56 ± 0.31 µM	27 ± 3.2 µM	a little inhibitory activity
